Assay results as given in article PMC13001051, “TRPA1-kinase axis polarization: Nepetalactone drives pest repulsion and predator attraction via divergent PKC/CaMKII signaling” (Journal of Advanced Research, 2025).
pEC50: −log10 of the molar value.

Assays:
Experiment in all cases: Fluo-4 calcium flux in transfected HEK293T cells
MuTRPA1 = tested on: T1, MuTRPA1; type: cell-based, Megalurothrips usitatus; settings: agonist; DMSO as negative control
T1 construct: gene TRPA1; full-length ORF (1403 aa, 16 ankyrin repeats) in pcDNA3.1(+)-mCherry, HEK293T cells

HaTRPA1 = target: T2, HaTRPA1 (Harmonia axyridis, UniProt Z9S2A3GZC9); type: cell-based
T2 construct: full-length in pcDNA3.1(+)-mCherry, HEK293T cells
T2 sequence (Z9S2A3GZC9 1-1276): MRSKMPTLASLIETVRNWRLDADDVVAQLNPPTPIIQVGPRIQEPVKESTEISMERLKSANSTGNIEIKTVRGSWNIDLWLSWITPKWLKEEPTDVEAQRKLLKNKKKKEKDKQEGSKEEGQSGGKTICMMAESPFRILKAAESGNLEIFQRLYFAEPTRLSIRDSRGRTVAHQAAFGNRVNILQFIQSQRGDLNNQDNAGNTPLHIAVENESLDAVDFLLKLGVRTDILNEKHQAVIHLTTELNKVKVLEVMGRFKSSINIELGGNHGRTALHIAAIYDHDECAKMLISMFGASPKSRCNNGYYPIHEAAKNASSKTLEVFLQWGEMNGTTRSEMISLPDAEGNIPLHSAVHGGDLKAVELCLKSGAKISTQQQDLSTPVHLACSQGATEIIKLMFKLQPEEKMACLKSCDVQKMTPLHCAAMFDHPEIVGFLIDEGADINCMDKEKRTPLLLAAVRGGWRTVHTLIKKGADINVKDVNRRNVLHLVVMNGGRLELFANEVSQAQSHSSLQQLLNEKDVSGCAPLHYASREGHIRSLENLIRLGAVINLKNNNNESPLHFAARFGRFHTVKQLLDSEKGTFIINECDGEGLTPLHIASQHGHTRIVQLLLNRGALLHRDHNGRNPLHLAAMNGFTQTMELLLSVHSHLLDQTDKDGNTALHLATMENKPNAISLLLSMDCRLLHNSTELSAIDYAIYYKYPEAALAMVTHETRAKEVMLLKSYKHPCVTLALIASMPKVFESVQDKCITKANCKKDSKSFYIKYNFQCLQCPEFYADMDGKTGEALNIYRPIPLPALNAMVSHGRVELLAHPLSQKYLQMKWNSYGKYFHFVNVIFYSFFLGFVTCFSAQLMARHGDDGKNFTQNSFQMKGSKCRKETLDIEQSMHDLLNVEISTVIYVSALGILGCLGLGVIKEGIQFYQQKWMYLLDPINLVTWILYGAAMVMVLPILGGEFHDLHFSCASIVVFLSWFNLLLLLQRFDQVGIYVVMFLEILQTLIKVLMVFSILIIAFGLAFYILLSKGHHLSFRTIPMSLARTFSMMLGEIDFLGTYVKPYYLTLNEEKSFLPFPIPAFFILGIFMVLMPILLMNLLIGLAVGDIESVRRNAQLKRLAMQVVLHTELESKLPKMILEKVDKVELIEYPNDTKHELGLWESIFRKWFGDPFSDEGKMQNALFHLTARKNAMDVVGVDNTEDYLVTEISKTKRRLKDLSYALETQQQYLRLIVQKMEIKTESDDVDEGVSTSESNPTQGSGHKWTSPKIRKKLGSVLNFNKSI
From the text: Fluo-4 calcium flux in transfected HEK293T cells on HaTRPA1 | Concentration-response curves of nepetalactone-induced calcium signaling in HEK293T cells heterologously expressing HaTRPA1 or PjTRPA1

DcTRPA1 = tested on: T3, DcTRPA1; type: cell-based, Diaphorina citri; settings: agonist; DMSO as negative control
T3 construct: gene TRPA1; full-length ORF (1073 aa, 14 ankyrin repeats) in pcDNA3.1(+)-mCherry, HEK293T cells

PjTRPA1 = tested on: T4, PjTRPA1; type: cell-based, Propylea japonica; settings: agonist; DMSO as negative control
T4 construct: gene TRPA1; full-length in pcDNA3.1(+)-mCherry, HEK293T cells
From the text: Fluo-4 calcium flux in transfected HEK293T cells on PjTRPA1 | Concentration-response curves of nepetalactone-induced calcium signaling in HEK293T cells heterologously expressing HaTRPA1 or PjTRPA1

Compound `CC1=COC(=O)C2C(C)CCC12` (stereo not shown) [nepetalactone] has a pEC50 (MuTRPA1) of 3.76, a pEC50 (HaTRPA1) of 3.39 and a pEC50 (DcTRPA1) of 3.16. For the same compound, the pEC50 (PjTRPA1) was 3.89.
